Reference: PubChem BioAssay (NCI)
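All cell lines were grown in 96-well plates and treated with compound for 48 hours. The concentration for 50% growth inhibition is given as GI50. TGI marks complete inhibition of growth.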

Experiments:
Experiment in all cases: DTP human tumour cell line panel, 48 h
SR leukemia = test system: SR leukemia
786-0 renal = test system: 786-0 renal
SNB-78 CNS = test system: SNB-78 CNS
OVCAR-3 ovarian = test system: OVCAR-3 ovarian
MOLT-4 leukemia = test system: MOLT-4 leukemia
NCI-H226 lung = test system: NCI-H226 lung
SF-539 CNS = test system: SF-539 CNS
MALME-3M melanoma = test system: MALME-3M melanoma
CAKI-1 renal = test system: CAKI-1 renal

Structure (SMILES): CC(=O)OCC(=O)[C@@]12OC(C)(C)O[C@@H]1C[C@H]1[C@@H]3CC(C=O)=C4C=C(OCCCl)CC[C@]4(C)[C@@]3(F)[C@@H](O)C[C@@]12C
- TGI (SR leukemia): > 100 µM
- TGI (786-0 renal): > 100 µM
- TGI (SNB-78 CNS): 68.8 µM
- TGI (OVCAR-3 ovarian): > 100 µM
- TGI (MOLT-4 leukemia): > 100 µM
- TGI (NCI-H226 lung): 64.8 µM
- TGI (SF-539 CNS): 80.9 µM
- TGI (MALME-3M melanoma): 70.3 µM

Structure (SMILES): CCN(c1cc(-c2ccc(CN3CCOCC3)cc2)cc(C(=O)NCc2c(C)cc(C)[nH]c2=O)c1C)C1CCOCC1
- GI50 (SR leukemia): 21.7 µM
- TGI (SR leukemia): 58.2 µM
- GI50 (CAKI-1 renal): 20.3 µM
- TGI (CAKI-1 renal): > 100 µM
- GI50 (786-0 renal): 17.1 µM
- TGI (786-0 renal): 40.7 µM
- GI50 (OVCAR-3 ovarian): 25 µM
- TGI (OVCAR-3 ovarian): > 54.6 µM
- GI50 (MOLT-4 leukemia): 21.6 µM
- TGI (MOLT-4 leukemia): 93.8 µM
- GI50 (NCI-H226 lung): 16.5 µM
- TGI (NCI-H226 lung): 40.8 µM
- GI50 (SF-539 CNS): 16.3 µM
- TGI (SF-539 CNS): 33.2 µM
- GI50 (MALME-3M melanoma): 14.4 µM
- TGI (MALME-3M melanoma): 28.9 µM

Structure (SMILES): C#Cc1nc2ccccc2c(=O)[nH]1
- GI50 (SR leukemia): 0.311 µM
- TGI (SR leukemia): 2.6 µM
- GI50 (CAKI-1 renal): 1.43 µM
- TGI (CAKI-1 renal): 3.47 µM
- GI50 (786-0 renal): 0.582 µM
- TGI (786-0 renal): 2.12 µM
- GI50 (OVCAR-3 ovarian): 0.262 µM
- TGI (OVCAR-3 ovarian): 0.643 µM
- GI50 (MOLT-4 leukemia): 0.316 µM
- TGI (MOLT-4 leukemia): 0.994 µM
- GI50 (NCI-H226 lung): 0.513 µM
- TGI (NCI-H226 lung): 11.7 µM
- GI50 (SF-539 CNS): 0.345 µM
- TGI (SF-539 CNS): 1.42 µM
- GI50 (MALME-3M melanoma): 1.23 µM
- TGI (MALME-3M melanoma): 3.04 µM

Structure (SMILES): C1CC[N-]CC1.CC(=N\O)/C(C)=N/O.CC(=N\O)/C(C)=N/O.OC1[CH-]CCCC1.[Co+2]
- GI50 (SR leukemia): 20.5 µM
- TGI (SR leukemia): 62.6 µM
- GI50 (CAKI-1 renal): 34.7 µM
- TGI (CAKI-1 renal): > 100 µM
- GI50 (786-0 renal): 61.8 µM
- TGI (786-0 renal): > 100 µM
- GI50 (OVCAR-3 ovarian): 52 µM
- TGI (OVCAR-3 ovarian): > 100 µM
- GI50 (MOLT-4 leukemia): 26.4 µM
- TGI (MOLT-4 leukemia): 99.1 µM
- GI50 (NCI-H226 lung): > 100 µM
- TGI (NCI-H226 lung): > 100 µM
- GI50 (SF-539 CNS): 25.5 µM
- TGI (SF-539 CNS): 71.1 µM
- GI50 (MALME-3M melanoma): 18 µM
- TGI (MALME-3M melanoma): 40.8 µM

Structure (SMILES): COc1ccc(-c2nc(-c3nc4ccc(F)cc4[nH]3)c3ccccn23)cc1
- GI50 (SR leukemia): 6.63 µM
- TGI (SR leukemia): > 100 µM
- GI50 (CAKI-1 renal): 12.1 µM
- TGI (CAKI-1 renal): > 100 µM
- GI50 (786-0 renal): 8.82 µM
- TGI (786-0 renal): 61.5 µM
- GI50 (OVCAR-3 ovarian): 6.14 µM
- TGI (OVCAR-3 ovarian): 27.1 µM
- GI50 (MOLT-4 leukemia): 3.83 µM
- TGI (MOLT-4 leukemia): > 100 µM
- GI50 (NCI-H226 lung): 2.72 µM
- TGI (NCI-H226 lung): 9.06 µM
- GI50 (SF-539 CNS): 10.4 µM
- TGI (SF-539 CNS): 45.2 µM
- GI50 (MALME-3M melanoma): 5.32 µM
- TGI (MALME-3M melanoma): 27.1 µM

Structure (SMILES): COc1ccc(C(O)c2cc3c(N)c(C(=O)Nc4cccc(Cl)c4)sc3nc2C)cc1 (centres undefined)
- GI50 (SR leukemia): 0.339 µM
- GI50 (CAKI-1 renal): 1.27 µM
- TGI (CAKI-1 renal): > 39.4 µM
- GI50 (786-0 renal): 1.67 µM
- TGI (786-0 renal): > 39.6 µM
- GI50 (OVCAR-3 ovarian): 0.843 µM
- TGI (OVCAR-3 ovarian): 2.34 µM
- GI50 (MOLT-4 leukemia): 1.54 µM
- TGI (MOLT-4 leukemia): > 43.3 µM
- GI50 (NCI-H226 lung): 1.63 µM
- TGI (NCI-H226 lung): > 43 µM
- GI50 (SF-539 CNS): 0.858 µM
- GI50 (MALME-3M melanoma): 2.48 µM
- TGI (MALME-3M melanoma): > 73.4 µM

Structure (SMILES): CN(C)CCSS(=O)(=O)O
- TGI (SR leukemia): > 100 µM
- TGI (CAKI-1 renal): > 100 µM
- TGI (786-0 renal): > 100 µM
- TGI (OVCAR-3 ovarian): > 100 µM
- TGI (MOLT-4 leukemia): > 100 µM
- TGI (NCI-H226 lung): > 100 µM
- TGI (SF-539 CNS): > 100 µM
- TGI (MALME-3M melanoma): > 100 µM

Structure (SMILES): O=c1cc(N/N=C/c2ccc(F)cc2)c2cc(Cl)ccc2[nH]1
- GI50 (SR leukemia): 24.5 µM
- TGI (SR leukemia): 85.6 µM
- GI50 (CAKI-1 renal): 23.5 µM
- TGI (CAKI-1 renal): > 100 µM
- GI50 (786-0 renal): 26.3 µM
- TGI (786-0 renal): > 100 µM
- GI50 (OVCAR-3 ovarian): 24.8 µM
- TGI (OVCAR-3 ovarian): > 100 µM
- GI50 (MOLT-4 leukemia): 4.07 µM
- TGI (MOLT-4 leukemia): > 100 µM
- GI50 (NCI-H226 lung): 14.6 µM
- TGI (NCI-H226 lung): > 100 µM
- GI50 (SF-539 CNS): 23.6 µM
- TGI (SF-539 CNS): 78.2 µM
- GI50 (MALME-3M melanoma): 14.2 µM
- TGI (MALME-3M melanoma): 54 µM

Structure (SMILES): Cc1c2cc(Cl)c3ccccc3c2c[n+]2ccccc12
- GI50 (SR leukemia): 2.4 µM
- TGI (SR leukemia): 15.2 µM
- GI50 (CAKI-1 renal): 21.8 µM
- TGI (CAKI-1 renal): > 100 µM
- GI50 (786-0 renal): 4.11 µM
- TGI (786-0 renal): 33 µM
- GI50 (OVCAR-3 ovarian): 1.62 µM
- TGI (OVCAR-3 ovarian): 5.41 µM
- GI50 (MOLT-4 leukemia): 4.5 µM
- TGI (MOLT-4 leukemia): 34.9 µM
- GI50 (NCI-H226 lung): 1.8 µM
- TGI (NCI-H226 lung): 14.2 µM
- GI50 (SF-539 CNS): 1.71 µM
- TGI (SF-539 CNS): 9.35 µM
- GI50 (MALME-3M melanoma): 0.378 µM
- TGI (MALME-3M melanoma): 2.8 µM

Structure (SMILES): Cc1c2c(c(C)c3c4c(oc13)CCCC4)C=NCC2
- TGI (SR leukemia): 23.4 µM
- TGI (CAKI-1 renal): 28 µM
- TGI (786-0 renal): > 100 µM
- TGI (OVCAR-3 ovarian): 31.5 µM
- TGI (MOLT-4 leukemia): 45.1 µM
- TGI (NCI-H226 lung): 31.5 µM
- TGI (SF-539 CNS): 28.9 µM
- TGI (MALME-3M melanoma): 32.6 µM

Structure (SMILES): Cc1nc2ccc(NC(=O)CCNC(=O)CCCc3ccc(CC(C(=O)O)C(=O)O)cc3)cc2s1
- GI50 (SR leukemia): > 100 µM
- TGI (SR leukemia): > 100 µM
- GI50 (CAKI-1 renal): > 100 µM
- TGI (CAKI-1 renal): > 100 µM
- GI50 (786-0 renal): > 100 µM
- TGI (786-0 renal): > 100 µM
- GI50 (OVCAR-3 ovarian): > 100 µM
- TGI (OVCAR-3 ovarian): > 100 µM
- GI50 (MOLT-4 leukemia): > 100 µM
- TGI (MOLT-4 leukemia): > 100 µM
- GI50 (NCI-H226 lung): > 100 µM
- TGI (NCI-H226 lung): > 100 µM
- GI50 (SF-539 CNS): > 100 µM
- TGI (SF-539 CNS): > 100 µM
- GI50 (MALME-3M melanoma): > 100 µM
- TGI (MALME-3M melanoma): > 100 µM

Structure (SMILES): Cn1cc(C2=C(c3cn(C)c4ccc(Cl)cc34)C(=O)NC2=O)c2ccccc21
- GI50 (SR leukemia): 1.18 µM
- TGI (SR leukemia): 16.2 µM
- GI50 (CAKI-1 renal): 2.75 µM
- TGI (CAKI-1 renal): > 23.7 µM
- GI50 (786-0 renal): 4.03 µM
- TGI (786-0 renal): 16.9 µM
- GI50 (OVCAR-3 ovarian): 1.44 µM
- TGI (OVCAR-3 ovarian): 6.88 µM
- GI50 (MOLT-4 leukemia): 2.17 µM
- TGI (MOLT-4 leukemia): 14.9 µM
- GI50 (NCI-H226 lung): 4.56 µM
- TGI (NCI-H226 lung): 17.4 µM
- GI50 (SF-539 CNS): 1.28 µM
- TGI (SF-539 CNS): 4.74 µM
- GI50 (MALME-3M melanoma): 6.33 µM
- TGI (MALME-3M melanoma): 19 µM

Structure (SMILES): COc1cc2c(cc1O)CC1c3c(cc(O)c(OC)c3-2)CCN1C (centres undefined)
- TGI (SR leukemia): > 100 µM
- TGI (CAKI-1 renal): > 100 µM
- TGI (786-0 renal): > 100 µM
- TGI (OVCAR-3 ovarian): > 100 µM
- TGI (MOLT-4 leukemia): > 100 µM
- TGI (NCI-H226 lung): > 100 µM
- TGI (SF-539 CNS): > 100 µM
- TGI (MALME-3M melanoma): > 100 µM
